Reference: ChEMBL document CHEMBL1201862, “PubChem BioAssay data set” (2004)
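Each compound was tested at five concentrations against cells in 96-well plates for 48 hours. GI50: concentration for 50% inhibition of growth.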 Calls of active or inactive are those of the source. Rule as the data show it: active = GI50 up to about 1.1 µM and inactive = higher.

Assays:
Experiment in all cases: NCI anticancer screen, dose series, 48 h
[1] = test system: KM12
[2] = test system: LXFL 529
[3] = test system: MOLT-4
[4] = test system: DMS-114
[5] = test system: M19-MEL
[6] = test system: CCRF-CEM
[7] = test system: SNB-75
[8] = test system: SR
[9] = test system: RXF 393
[10] = test system: NCI-H460
[11] = test system: COLO 205
[12] = test system: CAKI-1
[13] = test system: SF-295
[14] = test system: M14
[15] = test system: NCI-H23
[16] = test system: SF-268
[17] = test system: OVCAR-3
[18] = test system: RXF 631
[19] = test system: DLD-1
[20] = test system: A549
[21] = test system: HT-29
[22] = test system: SW-620
[23] = test system: UO-31
[24] = test system: NCI-H226
[25] = test system: SNB-19
[26] = test system: SK-MEL-28
[27] = test system: IGROV-1
[28] = test system: SK-MEL-5
[29] = test system: DMS-273
[30] = test system: EKVX
[31] = test system: HCT-15
[32] = test system: TK-10
[33] = test system: RPMI-8226
[34] = test system: SK-OV-3
[35] = test system: HOP-92
[36] = test system: HCC 2998
[37] = test system: SNB-78
[38] = test system: ACHN
[39] = test system: KM-20L2
[40] = test system: HOP-18
[41] = test system: U-251
[42] = test system: SN12C
[43] = test system: XF498
[44] = test system: HL-60
[45] = test system: HOP-62
[46] = test system: UACC-62
[47] = test system: HCT-116
[48] = test system: SK-MEL-2
[49] = test system: NCI-H522
[50] = test system: A498
[51] = test system: LOX IMVI
[52] = test system: 786-0
[53] = test system: K562
[54] = test system: OVCAR-8
[55] = test system: Malme-3M
[56] = test system: OVCAR-5
[57] = test system: UACC-257
[58] = test system: OVCAR-4
[59] = test system: SF-539

C1=C(c2ccccc2)C(OC2Oc3ccccc3C=C2c2ccccc2)Oc2ccccc21 (stereo unspecified)
GI50 [1]: > 100 µM (inactive)
GI50 [2]: > 100 µM (inactive)
GI50 [3]: > 100 µM (inactive)
GI50 [4]: > 100 µM (inactive)
GI50 [5]: > 100 µM (inactive)
GI50 [6]: > 100 µM (inactive)
GI50 [7]: 24.6 µM (inactive)
GI50 [8]: 33.6 µM (inactive)
GI50 [9]: > 100 µM (inactive)
GI50 [10]: > 100 µM (inactive)
GI50 [11]: > 100 µM (inactive)
GI50 [12]: > 100 µM (inactive)
GI50 [13]: > 100 µM (inactive)
GI50 [14]: > 100 µM (inactive)
GI50 [15]: > 100 µM (inactive)
GI50 [16]: > 100 µM (inactive)
GI50 [17]: > 100 µM (inactive)
GI50 [18]: > 100 µM (inactive)
GI50 [19]: > 100 µM (inactive)
GI50 [20]: > 100 µM (inactive)
GI50 [21]: > 100 µM (inactive)
GI50 [22]: 31.3 µM (inactive)
GI50 [23]: > 100 µM (inactive)
GI50 [24]: > 100 µM (inactive)
GI50 [25]: > 100 µM (inactive)
GI50 [26]: > 100 µM (inactive)
GI50 [27]: > 100 µM (inactive)
GI50 [28]: > 100 µM (inactive)
GI50 [29]: > 100 µM (inactive)
GI50 [30]: > 100 µM (inactive)
GI50 [31]: > 100 µM
GI50 [32]: > 100 µM (inactive)
GI50 [33]: 33.6 µM (inactive)
GI50 [34]: > 100 µM (inactive)
GI50 [35]: > 100 µM (inactive)
GI50 [36]: > 100 µM (inactive)
GI50 [37]: > 100 µM (inactive)
GI50 [38]: 26.1 µM (inactive)
GI50 [39]: > 100 µM (inactive)
GI50 [40]: > 100 µM (inactive)
GI50 [41]: 15.5 µM (inactive)
GI50 [42]: > 100 µM (inactive)
GI50 [43]: > 100 µM (inactive)
GI50 [44]: > 100 µM (inactive)
GI50 [45]: > 100 µM (inactive)
GI50 [46]: > 100 µM (inactive)
GI50 [47]: > 100 µM (inactive)
GI50 [48]: > 100 µM (inactive)
GI50 [49]: > 100 µM (inactive)
GI50 [50]: > 100 µM (inactive)
GI50 [51]: > 100 µM (inactive)
GI50 [52]: > 100 µM (inactive)
GI50 [53]: > 100 µM (inactive)
GI50 [54]: > 100 µM (inactive)
GI50 [55]: > 100 µM (inactive)
GI50 [56]: > 100 µM (inactive)
GI50 [57]: > 100 µM (inactive)

CC1OC(=O)N2CCC=CC12 (stereo unspecified)
GI50 [1]: > 100 µM (inactive)
GI50 [2]: > 100 µM (inactive)
GI50 [3]: > 100 µM (inactive)
GI50 [4]: > 100 µM (inactive)
GI50 [5]: > 100 µM (inactive)
GI50 [6]: > 100 µM (inactive)
GI50 [7]: > 100 µM (inactive)
GI50 [9]: > 100 µM (inactive)
GI50 [10]: > 100 µM (inactive)
GI50 [11]: > 100 µM (inactive)
GI50 [13]: > 100 µM (inactive)
GI50 [15]: > 100 µM (inactive)
GI50 [16]: > 100 µM (inactive)
GI50 [17]: > 100 µM (inactive)
GI50 [18]: > 100 µM (inactive)
GI50 [19]: > 100 µM (inactive)
GI50 [20]: > 100 µM (inactive)
GI50 [21]: > 100 µM (inactive)
GI50 [58]: > 100 µM (inactive)
GI50 [22]: > 100 µM (inactive)
GI50 [23]: > 100 µM (inactive)
GI50 [24]: > 100 µM (inactive)
GI50 [25]: > 100 µM (inactive)
GI50 [26]: > 100 µM (inactive)
GI50 [27]: > 100 µM (inactive)
GI50 [28]: > 100 µM (inactive)
GI50 [29]: > 100 µM (inactive)
GI50 [30]: > 100 µM (inactive)
GI50 [31]: > 100 µM
GI50 [32]: > 100 µM (inactive)
GI50 [59]: > 100 µM (inactive)
GI50 [33]: > 100 µM (inactive)
GI50 [34]: > 100 µM (inactive)
GI50 [37]: > 100 µM (inactive)
GI50 [38]: > 100 µM (inactive)
GI50 [39]: > 100 µM (inactive)
GI50 [40]: > 100 µM (inactive)
GI50 [41]: > 100 µM (inactive)
GI50 [42]: > 100 µM (inactive)
GI50 [43]: > 100 µM (inactive)
GI50 [46]: > 100 µM (inactive)
GI50 [47]: > 100 µM (inactive)
GI50 [48]: > 100 µM (inactive)
GI50 [49]: > 100 µM (inactive)
GI50 [50]: > 100 µM (inactive)
GI50 [51]: > 100 µM (inactive)
GI50 [52]: > 100 µM (inactive)
GI50 [53]: > 100 µM (inactive)
GI50 [54]: > 100 µM (inactive)
GI50 [55]: > 100 µM (inactive)
GI50 [56]: > 100 µM (inactive)
GI50 [57]: > 100 µM (inactive)

COc1cc2c3c(c1OC)C1(C=CC(=O)C=C1)C[C@H]3N(C)CC2 [PRONUCIFERINE]
GI50 [1]: > 100 µM (inactive)
GI50 [2]: > 100 µM (inactive)
GI50 [3]: > 100 µM (inactive)
GI50 [4]: > 100 µM (inactive)
GI50 [5]: > 100 µM (inactive)
GI50 [7]: > 100 µM (inactive)
GI50 [8]: > 100 µM (inactive)
GI50 [9]: 26 µM (inactive)
GI50 [10]: > 100 µM (inactive)
GI50 [11]: > 100 µM (inactive)
GI50 [13]: > 100 µM (inactive)
GI50 [14]: > 100 µM (inactive)
GI50 [15]: > 100 µM (inactive)
GI50 [16]: > 100 µM (inactive)
GI50 [17]: > 100 µM (inactive)
GI50 [18]: > 100 µM (inactive)
GI50 [19]: > 100 µM (inactive)
GI50 [20]: > 100 µM (inactive)
GI50 [21]: > 100 µM (inactive)
GI50 [22]: > 100 µM (inactive)
GI50 [23]: > 100 µM (inactive)
GI50 [24]: > 100 µM (inactive)
GI50 [25]: > 100 µM (inactive)
GI50 [26]: > 100 µM (inactive)
GI50 [27]: > 100 µM (inactive)
GI50 [28]: > 100 µM (inactive)
GI50 [29]: > 100 µM (inactive)
GI50 [30]: > 100 µM (inactive)
GI50 [31]: > 100 µM
GI50 [32]: > 100 µM (inactive)
GI50 [59]: > 100 µM (inactive)
GI50 [33]: > 100 µM (inactive)
GI50 [34]: > 100 µM (inactive)
GI50 [35]: > 100 µM (inactive)
GI50 [36]: > 100 µM (inactive)
GI50 [37]: > 100 µM (inactive)
GI50 [38]: > 100 µM (inactive)
GI50 [39]: > 100 µM (inactive)
GI50 [40]: > 100 µM (inactive)
GI50 [41]: > 100 µM (inactive)
GI50 [42]: > 100 µM (inactive)
GI50 [43]: > 100 µM (inactive)
GI50 [46]: > 100 µM (inactive)
GI50 [47]: > 100 µM (inactive)
GI50 [48]: > 100 µM (inactive)
GI50 [49]: 74.3 µM (inactive)
GI50 [51]: > 100 µM (inactive)
GI50 [52]: > 100 µM (inactive)
GI50 [54]: > 100 µM (inactive)
GI50 [55]: > 100 µM (inactive)
GI50 [56]: > 100 µM (inactive)
GI50 [57]: > 100 µM (inactive)
